Source: patent US10265132B2, “Antimicrobial elastomeric articles” (ALLEGIANCE CORPORATION, priority 2012, dated 2019)

How the values were obtained:
[1] = tested on: broad spectrum of microbes; test: Minimum concentration of CHG on coated glove needed for 4 log efficacy in 5 minutes; settings: 5 minutes exposure, E. coli and MRSA
Description: (§1) The formulation fabrication and coating application were the same as described in Example 1. The concentration of the active component, CHG, was varied in the formulation. These formulations were then applied to the gloves and the concentration of CHG needed on the coated glove in order to achieve at least 4 log efficacy was measured. The concentration of CHG was measured using UV-Visible spectroscopy with the assistance of a sodium hypobromite indicator. CHG was extracted from the glove using water and the unknown concentration was calculated versus a predetermined standard curve. The antimicrobial efficacy after an exposure time of 5 minutes was determined against E. coli and MRSA.

MRSA = test: Antimicrobial activity (log reduction) of coated gloves against MRSA, 5 minute exposure time; parameters: species or system methicillin-resistant Staphylococcus aureus
Description: (§2) Antimicrobial Activity: The antimicrobial activity of sample 1-1 was tested before and after aging against E. coli and MRSA with a 5 minute exposure time:
(§3) The coating composition and formulation fabrication remained the same as describe in Example 1. Sample 2-1 describes coated gloves that were stored in desiccated environments (described above in Example 1) before and after the application of the antimicrobial coating. Samples 2-2 and 2-3 represent coated gloves that were pre- and post-conditioned (using the technique described above in Example 1), respectively. Sample 2-4 describes coated gloves that were not desiccated before or after application of the antimicrobial coating. Samples 2-1 through 2-4 were tested before and after conditioning against E. coli and MRSA with a 5 minute exposure time.
The coating composition, formulation fabrication, and coating application method remained the same as described in Example 1. Antimicrobial gloves were packed into two packaging prototypes. The prototypes contained the antimicrobial coated gloves and the prototypes were subjected to outside conditions meant to simulated real world conditions experienced by medical glove products. Sample 4-1 is a control glove that was not packaged. Sample 4-2 is a packaging prototype comprised of Amcor aluminum foil laminate packaging containing antimicrobial-coated gloves and desiccant. […]
as §1, with “The concentration of the active component, CHG, was varied in the formulation.” left out

E. coli = test: Antimicrobial activity (log reduction) of coated gloves against E. coli, 5 minute exposure time
Description: as §2, §3
The coating composition, formulation fabrication, and coating application method remained the same as described in Example 1, Sample 3-1 describes antimicrobial-coated gloves that were exposed to 23° C. with a relative humidity of 45%. Sample 3-2 describes antimicrobial-coated gloves that were exposed to 23° C. with a relative humidity of 55%. Sample 3-3 describes antimicrobial-coated gloves that were exposed to 23° C. with a relative humidity of 75%. All samples were tested after one and two weeks exposure to the temperature and humidity levels. Antimicrobial efficacy was recorded against E. coli after a 5 minute exposure time. […]
as §1, with “The concentration of the active component, CHG, was varied in the formulation.” left out

[2] = CHG concentration on glove 2.09 μg/cm^2, 5 minutes exposure
[3] = CHG concentration on glove 7.63 μg/cm^2, 5 minutes exposure
[4] = CHG concentration on glove 11.90 μg/cm^2, 5 minutes exposure

## N=C(NCCCCCCNC(=N)NC(=N)Nc1ccc(Cl)cc1)NC(=N)Nc1ccc(Cl)cc1.O=C(O)[C@H](O)[C@@H](O)[C@H](O)[C@H](O)CO.O=C(O)[C@H](O)[C@@H](O)[C@H](O)[C@H](O)CO [CHG, chlorhexidine digluconate]
[1]
  CHG needed to offer 4 log antimicrobial efficacy: about 7.6 μg
MRSA; [2]
  Log Reduction MRSA: 3.08 log
MRSA; [3]
  Log Reduction MRSA: 4.16 log
MRSA; [4]
  Log Reduction MRSA: 4.06 log
E. coli; [2]
  Log Reduction E. coli: 1.67 log
E. coli; [3]
  Log Reduction E. coli: 4.18 log
E. coli; [4]
  Log Reduction E. coli: 4.72 log
